Test results as given in patent US20110245249A1, “Heterocyclically Substituted Anilinopyrimidines” (Bayer CropScience AG, priority 2008, published 2011).

Key:
[1] = tested on: Production of Fumonisin FB1 by Fusarium proliferatum; experiment: Production of Fumonisin FB1 by Fusarium proliferatum; type: cell-based; details: FB1 in liquid medium after 6 days at 20° C., HPLC-MS/MS
Fusarium proliferatum = experiment: Growth of Fusarium proliferatum (OD620) in the fumonisin test; type: cell-based; details: for pI50 growth: OD620 at the beginning and after 6 days
[2] = logP by HPLC on reversed-phase columns (EEC Directive 79/831 Annex V.A8); type: physicochemical
Experimental: The logP values were measured in accordance with EEC Directive 79/831 Annex V.A8 by HPLC (High Performance Liquid Chromatography) on reversed-phase columns (C 18) using the methods below:
[a] The determination was carried out in the acidic range at pH 2.3 using the mobile phases 0.1% aqueous phosphoric acid and acetronitrile linear gradient from 10% acetonitrile to 95% acetronitrile. [b] The LC-MS determination in the acid range was carried out at pH 2.7 using the mobile phases 0.1% aqueous formic acid and acetonitrile (contains 0.1% formic acid) linear gradient from 10% acetonitrile to 95% acetonitrile. [c] The LC-MS determination in the neutral range was carried out at pH 7.8 using the mobile phases 0.001 molar aqueous ammonium bicarbonate solution and acetonitrile linear gradient from 10% acetonitrile to 95% acetonitrile.

Compound | log p [b] ([2]; pH 2.7) | log p [c] ([2]; pH 7.8) | log p ([2]; pH 2.7) | log p ([2]; pH 7.8) | other results
Clc1cnc(Nc2cccc(C3OCCCO3)c2)nc1NC1CC1 [Example 5, 5-Chloro-N^4-cyclopropyl-N^2-[3-(1,3-dioxan-2-yl)phenyl]pyrimidine-2,4-diamine] |  |  |  |  | IC50 ([1]; Fusarium proliferatum, 144 h, read-out: pI50 Fum (converted)): 251 nM; IC50 (Fusarium proliferatum; Fusarium proliferatum, 144 h, read-out: pI50 growth): 794 nM; chromatographic logP ([2]; pH 2.7, log p [b]): 1.69; chromatographic logP ([2]; pH 2.7, logP (pH 2.7)): 1.69; chromatographic logP ([2]; pH 7.8, log p [c]): 2.83
CC1(c2cccc(Nc3ncc(Cl)c(NC4CC4)n3)c2)OCCCO1 [Example 6] |  |  |  |  | pI50 growth (Fusarium proliferatum): 5.5
CC1OC(c2cccc(Nc3ncc(Br)c(NC4CC4)n3)c2)OC1C (stereo not drawn) [Example 14] | 2.31 | 3.5 |  |  | pI50 growth (Fusarium proliferatum): 5.5
CC1(C)COC(c2cccc(Nc3ncc(Br)c(NC4CC4)n3)c2)OC1 [Example 16] | 2.65 | 3.9 |  |  | pI50 Fum [1]: 6
FC(F)(F)c1cnc(Nc2cccc(C3OCCO3)c2)nc1NC1CCC1 [Example 22] | 3.06 | 3.57 |  |  | pI50 growth (Fusarium proliferatum): 5.5
CN(c1nc(Nc2cccc(C3OCCO3)c2)ncc1Cl)C1CC1 [Example 23] | 2.52 | 3.45 |  |  | pI50 growth (Fusarium proliferatum): 4.9
COCC1COC(c2cccc(Nc3ncc(Cl)c(NC4CC4)n3)c2)O1 (stereo not drawn) [Example 28] | 2.21 | 2.81 |  |  | pI50 Fum [1]: 6.5
FC(F)(F)c1cnc(Nc2cccc(C3OC4COCC4O3)c2)nc1NC1CC1 (stereo not drawn) [Example 111] |  | 2.87 |  |  | log p [a] ([2]; pH 2.3): 1.94
FC(F)(F)c1cnc(Nc2cccc(C3OC4COCC4O3)c2)nc1NC1CCC1 (stereo not drawn) [Example 112] | 2.79 | 3.37 |  |  | 
CCC1COC(c2cccc(Nc3ncc(C(F)(F)F)c(NC4CCC4)n3)c2)O1 (stereo not drawn) [Example 113] | 4.06 | 4.56 |  |  | 
COCC1COC(c2cccc(Nc3ncc(Cl)c(NC4CCC4)n3)c2)O1 (stereo not drawn) [Example 114] | 2.09 | 3.42 |  |  | 
COCC1COC(c2cccc(Nc3ncc(Br)c(NC4CCC4)n3)c2)O1 (stereo not drawn) [Example 115] | 2.19 | 3.61 |  |  | 
C=CCOCC1COC(c2cccc(Nc3ncc(Cl)c(NC4CCC4)n3)c2)O1 (stereo not drawn) [Example 116] | 2.59 | 4.07 |  |  | 
C=CCOCC1COC(c2cccc(Nc3ncc(Br)c(NC4CCC4)n3)c2)O1 (stereo not drawn) [Example 117] | 2.77 | 4.24 |  |  | 
Clc1cnc(Nc2cccc(C3OC4COCC4O3)c2)nc1NC1CCC1 (stereo not drawn) [Example 118] | 1.77 | 3.04 |  |  | 
Brc1cnc(Nc2cccc(C3OC4COCC4O3)c2)nc1NC1CCC1 (stereo not drawn) [Example 119] | 1.91 | 3.23 |  |  | 
CC(C)(C)C1CCOC(c2cccc(Nc3ncc(Br)c(NC4CC4)n3)c2)O1 (stereo not drawn) [Example 120] | 3.34 | 4.7 |  |  | 
CC(C)(C)C1CCOC(c2cccc(Nc3ncc(Cl)c(NC4CC4)n3)c2)O1 (stereo not drawn) [Example 121] | 3.16[b] |  |  |  | 
CC(C)(C)C1CCOC(c2cccc(Nc3ncc(C(F)(F)F)c(NC4CC4)n3)c2)O1 (stereo not drawn) [Example 122] | 4.44 | 4.82 |  |  | 
Clc1cnc(Nc2cccc(C3OCC4(CC4)CO3)c2)nc1NC1CC1 [Example 123] | 2.09 | 3.32 |  |  | 
CC1CC(C(F)(F)F)OC(c2cccc(Nc3ncc(Cl)c(NC4CC4)n3)c2)O1 (stereo not drawn) [Example 124] | 2.84[b] |  |  |  | 

Compound | log p [b] ([2]; pH 2.7) | log p [c] ([2]; pH 7.8) | log p ([2]; pH 2.7) | log p ([2]; pH 7.8) | other results
CCOC1COC(c2cccc(Nc3ncc(Cl)c(NC4CC4)n3)c2)OC1 (stereo not drawn) [Example 125] | 2.07 | 3.27 |  |  | 
Clc1cnc(Nc2cccc(C3OCCCCO3)c2)nc1NC1CC1 [Example 126] | 2.14 | 3.48 |  |  | 
Clc1cnc(Nc2cccc(C3OCCCS3)c2)nc1NC1CC1 (stereo not drawn) [Example 127] | 2.1 | 3.33 |  |  | 
Fc1ccc(Nc2ncc(Cl)c(NC3CC3)n2)cc1C1OCCO1 [Example 128] | 1.75 | 2.88 |  |  | 
CC1CC1Nc1nc(Nc2cccc(C3OCCO3)c2)ncc1C(F)(F)F (stereo not drawn) [Example 129] | 3.03 | 3.58 |  |  | 
COCC1COC(c2cccc(Nc3ncc(C(F)(F)F)c(NC4CC4C)n3)c2)O1 (stereo not drawn) [Example 130] |  |  | 3.18 | 3.7 | 
CC1CC1Nc1nc(Nc2cccc(C3OCCO3)c2)ncc1Br (stereo not drawn) [Example 131] |  |  |  | 3.33[c] | 
COCC1COC(c2cccc(Nc3ncc(Br)c(NC4CC4C)n3)c2)O1 (stereo not drawn) [Example 132] |  |  | 2.19 | 3.52 | 
CC1CC1Nc1nc(Nc2cccc(C3OCCCO3)c2)ncc1Br (stereo not drawn) [Example 133] |  |  | 2.18 | 3.53 | 
C#CCNc1nc(Nc2cccc(C3OCCO3)c2)ncc1Cl [Example 134] |  |  | 1.58 | 2.37 | 
Clc1cnc(Nc2ccc(C3OCCCO3)cc2)nc1NC1CC1 [Example 135] |  |  | 1.72 | 2.82 | 
COc1ccc(Nc2ncc(C(F)(F)F)c(NC3CC3)n2)cc1C1OCCCO1 [Example 136] |  |  | 2.38 | 3.18 | 
COc1ccc(Nc2ncc(Br)c(NC3CC3)n2)cc1C1OCCO1 [Example 138] |  |  | 1.5 | 2.7 | 
COc1ccc(Nc2ncc(Br)c(NC3CCC3)n2)cc1C1OCCO1 [Example 139] |  |  | 1.79 | 3.29 | 
Fc1ccc(Nc2ncc(Br)c(NC3CC3)n2)cc1C1OCCO1 [Example 141] |  |  | 1.89 | 2.98 | 
Fc1ccc(Nc2ncc(Br)c(NC3CCC3)n2)cc1C1OCCO1 [Example 142] |  |  | 2.22 | 3.55 | 
Fc1ccc(Nc2ncc(C(F)(F)F)c(NC3CC3)n2)cc1C1OCCO1 [Example 143] |  |  | 2.76 | 3.2 | 
Fc1ccc(Nc2ncc(Cl)c(NC3CC3)n2)cc1C1OCCCO1 [Example 144] |  |  | 1.87 | 3.02 | 
Fc1ccc(Nc2ncc(Br)c(NC3CC3)n2)cc1C1OCCCO1 [Example 145] |  |  | 2.01 | 3.16 | 
Fc1ccc(Nc2ncc(Br)c(NC3CCC3)n2)cc1C1OCCCO1 [Example 146] |  |  | 2.3 | 3.75 | 
Fc1ccc(Nc2ncc(C(F)(F)F)c(NC3CC3)n2)cc1C1OCCCO1 [Example 147] |  |  | 2.27 | 3.40 | 

Compound | log p [b] ([2]; pH 2.7) | log p [c] ([2]; pH 7.8) | log p ([2]; pH 2.7) | log p ([2]; pH 7.8) | other results
CC(C)Nc1nc(Nc2cccc(C3OCCO3)c2)ncc1Cl [Example 148] |  |  | 1.7 | 3.04 | 
CC(C)Nc1nc(Nc2cccc(C3OCCCO3)c2)ncc1Cl [Example 149] |  |  | 1.73 | 3.2 | 
CCC1COC(c2cccc(Nc3ncc(Br)c(NC4CC4)n3)c2)O1 (stereo not drawn) [Example 150] |  |  |  | 3.68[c] | 
Brc1cnc(Nc2cccc(C3OCCCO3)c2)nc1NC1CCC1 [Example 151] |  |  | 2.11 | 3.54 | 
Clc1cnc(Nc2cccc(C3OCCCO3)c2)nc1NCC1CC1 [Example 152] |  |  | 1.87[b] |  | 
FC(F)(F)c1cnc(Nc2cccc(C3OCCCO3)c2)nc1NC1CC1 [Example 153] |  |  | 2.71[b] |  | 
CCOCCOCC1COC(c2cccc(Nc3ncc(Cl)c(NC4CC4)n3)c2)O1 (stereo not drawn) [Example 154] |  |  | 2.05 | 3.13 | 
CC1CSC(c2cccc(Nc3ncc(C(F)(F)F)c(NC4CC4)n3)c2)S1 (stereo not drawn) [Example 155] |  |  | 4.14 | 4.44 | 
Clc1cnc(Nc2cccc(C3OCC(CBr)O3)c2)nc1NC1CC1 (stereo not drawn) [Example 156] |  |  | 2.39 | 3.48 | 
CC1CCC2OC(c3cccc(Nc4ncc(Cl)c(NC5CC5)n4)c3)OC12 (stereo not drawn) [Example 157] |  |  | 2.79 | 4.1 | 
CC1(C)OC(c2cccc(Nc3ncc(Cl)c(NC4CC4)n3)c2)OC1(C)C [Example 158] |  |  | 2.78 | 4.13 | 
CCC1(CO)COC(c2cccc(Nc3ncc(Cl)c(NC4CC4)n3)c2)OC1 (stereo not drawn) [Example 159] |  |  | 1.82 | 2.77 | 
OCC1CSC(c2cccc(Nc3ncc(Cl)c(NC4CC4)n3)c2)S1 (stereo not drawn) [Example 160] |  |  |  | 2.72[c] | 
CC1CSC(c2cccc(Nc3ncc(Cl)c(NC4CC4)n3)c2)S1 (stereo not drawn) [Example 161] |  |  | 2.79 | 4.14 | 
OCC1CSC(c2cccc(Nc3ncc(Cl)c(NC4CCC4)n3)c2)S1 (stereo not drawn) [Example 162] |  |  | 1.93 | 3.14 | 
CC1CSC(c2cccc(Nc3ncc(Cl)c(NC4CCC4)n3)c2)S1 (stereo not drawn) [Example 163] |  |  | 3.23 | 4.72 | 
OCC1CSC(c2cccc(Nc3ncc(Br)c(NC4CCC4)n3)c2)S1 (stereo not drawn) [Example 164] |  |  | 2.11 | 3.28 | 
CC1CSC(c2cccc(Nc3ncc(Br)c(NC4CCC4)n3)c2)S1 (stereo not drawn) [Example 165] |  |  | 3.49 | 4.92 | 
OCC1CSC(c2cccc(Nc3ncc(Br)c(NC4CC4)n3)c2)S1 (stereo not drawn) [Example 166] |  |  | 1.89 | 2.85 | 
CC1CSC(c2cccc(Nc3ncc(Br)c(NC4CC4)n3)c2)S1 (stereo not drawn) [Example 167] |  |  | 3.1 | 4.31 | 
OCC1CSC(c2cccc(Nc3ncc(C(F)(F)F)c(NC4CC4)n3)c2)S1 (stereo not drawn) [Example 168] |  |  | 2.65 | 3.03 | 
